Data reported in US10544112B2, “Identification of ebsulfur analogues with broad-spectrum antifungal activity” (priority 2017, dated 2020).
Values after ≈ are worked out from the molar mass of the structure shown. Like-named read-outs stand apart in the source and are kept apart here.

What was measured:
[1] = test system: Candida and Aspergillus strains; test: Antifungal MIC, summary over whole panel of fungal strains; assay type: cell-based; settings: Candida and Aspergillus strains; controls, tested herein or previously published
Procedure: Fungal MIC determination experiments were performed using untreated 96-well plates (Corning). Cells were counted either by using a hemocytometer (Hausser Scientific, Horsham, Pa., USA) or by measuring optical density at attenuance of 600 nm (OD600) by using a Genesys 20 spectrophotometer (Thermo Scientific, Waltham, Mass., USA). Spectrophotometric and colorimetric measurements in 96-well plates were performed using a SpectraMax M5 spectrometer (Molecular Devices, Sunnyvale, Calif., USA).
Yeast strains Candida albicans ATCC 10231 (strain A), C. albicans ATCC 64124 (strain B), and C. albicans ATCC MYA-2876(S) (strain C) were kindly provided by Dr. Jon Y. Takemoto (Utah State University, Logan, UT, USA). C. albicans ATCC MYA-90819(R) (strain D), C. albicans ATCC MYA-2310(S) (strain E), C. albicans ATCC 1237(R) (strain F), C. albicans ATCC MYA-1003(R) (strain G), Candida glabrata ATCC 2001 (strain H), Candida krusei ATCC 6258 (strain I), and Candida parapsilosis ATCC 22019 (strain J) were obtained from the American Type Culture Collection (ATCC, Manassas, Va., USA). The (S) and (R) indicate that ATCC reports these strains to be susceptible (S) and resistant (R) to ITC and FLC. The filamentous fungal strains Aspergillus flavus ATCC MYA-3631 (strain K), and Aspergillus terreus ATCC MYA-3633 (strain M) were also obtained from the American Type Culture Collection (ATCC, Manassas, Va., USA). Aspergillus nidulans ATCC 38163 (strain L) was kindly provided by Dr. Jon S. Thorson (University of Kentucky, Lexington, Ky., USA), respectively. Yeast strains were cultured at 35° C. Filamentous fungal strains were cultured at 25° C. and the spores were harvested. All fungal strains were cultured in RPMI 1640 medium (catalog # R6504, Sigma-Aldrich Chemical Co., St. Louis, Mo.) buffered to pH 7.0 with 0.165 M morpholinepropanesulfonic acid (MOPS) buffer (Sigma-Aldrich Chemical Co.).
The MIC values against fungal strains were determined based on a previously published protocol. MIC values for ebsulfur (2a) analogues against fungal cells were evaluated in 96-well plates as described in the CLSI document M27-A3 with minor modifications. […] Therefore, potato dextrose broth (PDB) was used to grow the yeast inocula of all strains tested, which were later diluted in RPMI 1640 medium to perform determination of MIC values. […] The tested compounds (10 mg/mL) were diluted to the working stocks (500 μg/mL) by addition of DMSO. Two-fold serial dilution of the working stocks was prepared by addition of RPMI 1640 medium (100 μL) and cell suspension (100 μL) to 96-well microtiter plate to achieve final drug and inoculum concentrations ranging from 12.5-0.02 μg/mL and 5×10^3 CFU/mL, respectively. Plates were incubated for 48 h at 35° C. […]

[2] = test system: C. albicans ATCC 64124 (strain B); assay type: cell-based, Candida albicans
Procedure: The efficiency of the compounds to kill C. albicans ATCC 64124 (strain B) was monitored using a previously published protocol. The cell suspensions were prepared to achieve an inoculum of approximately 1-4×10^5 CFU/mL in RPMI 1640 medium at 35° C. […] After fungal cell addition, at 0, 3, 6, 9, 12, and 24 h, the tubes were vortexed and 100 μL aliquots were removed from each solution, spread onto PDA plates, and incubated at 35° C. Colony counts were determined after 24 h of incubation. The experiments were performed in duplicate (FIG. 2).
Time-kill assays with ebsulfur (2a) and analogue 3a (FIG. 2) were performed to determine the rate of fungicidal activity of the compounds if the invention.

[3] = test system: Aspergillus terreus ATCC MYA-3633 (strain M); test: Antifungal MIC determination, filamentous fungi spores; assay type: cell-based; settings: strain M; all compounds; spores
Method in brief: (§1)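 CLSI M27-A3 microdilution, modified; RPMI 1640/0.165 M MOPS pH 7.0; final drug 12.5-0.02 μg/mL (2-fold series), inoculum 5×10^3 CFU/mL; 48 h, 35° C. Aspergillus: spores from 3-5 day PDA cultures at 25° C, tested likewise.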

[4] = test system: Aspergillus flavus ATCC MYA-3631 (strain K); test: as above; assay type: cell-based; settings: all compounds
Method in brief: as §1

[5] = test system: Candida krusei ATCC 6258 (strain I); test: Antifungal MIC determination (CLSI M27-A3, 96-well); assay type: cell-based; settings: strain I; compounds 1-4n and AmB; 48 h, RPMI 1640
Method in brief: (§2)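 Yeasts were precultured in potato dextrose broth, then diluted in RPMI 1640 (pH 7.0, 0.165 M MOPS) to a final 5×10^3 CFU/mL. Compounds were serially diluted two-fold to 12.5-0.02 μg/mL. Plates were incubated 48 h at 35° C.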

[6] = test system: Candida parapsilosis ATCC 22019 (strain J); test: as above; assay type: cell-based; settings: strain J; compounds 1-4n and AmB; 48 h, RPMI 1640
Method in brief: as §2

[7] = test system: Candida albicans ATCC 10231 (strain A); test: as above; assay type: cell-based; settings: strain A; compounds 1-4n and AmB; 48 h, RPMI 1640
Method in brief: as §2

[8] = test system: Candida glabrata ATCC 2001 (strain H); test: as above; assay type: cell-based; settings: strain H; compounds 1-4n and AmB; 48 h, RPMI 1640
Method in brief: as §2

[9] = test system: C. albicans ATCC 64124 (strain B); test: microbe, parasite or virus in culture; assay type: cell-based, Candida albicans; settings: strain B; compounds 1-4n and AmB; 48 h, RPMI 1640
Method in brief: as §2

[10] = test system: C. albicans ATCC MYA-1003(R) (strain G); test: microbe, parasite or virus in culture; assay type: cell-based, Candida albicans; settings: strain G; compounds 1-4n and AmB; 48 h, RPMI 1640
Method in brief: as §2

[11] = test system: C. albicans ATCC 90819(R) (strain D); test: microbe, parasite or virus in culture; assay type: cell-based, Candida albicans; settings: strain D; compounds 1-4n and AmB; 48 h, RPMI 1640
Method in brief: as §2

[12] = test system: C. albicans ATCC MYA-1237(R) (strain F); test: microbe, parasite or virus in culture; assay type: cell-based, Candida albicans; settings: strain F; compounds 1-4n and AmB; 48 h, RPMI 1640
Method in brief: as §2

[13] = test system: C. albicans ATCC MYA-2310(S) (strain E); test: Antifungal MIC determination (CLSI M27-A3, 96-well); assay type: cell-based, Candida albicans; settings: strain E; compounds 1-4n and AmB; 48 h, RPMI 1640
Method in brief: as §2

[14] = test system: C. albicans ATCC MYA-2876(S) (strain C); test: as above; assay type: cell-based, Candida albicans; settings: strain C; compounds 1-4n and AmB; 48 h, RPMI 1640
Method in brief: as §2

[15] = test system: Aspergillus nidulans ATCC 38163 (strain L); test: Antifungal MIC determination, filamentous fungi spores; assay type: cell-based; settings: strain L; spores
Method in brief: as §1

[16] = test system: C. albicans ATCC 10231 (strain A); test: ROS production assay (DCFH-DA); assay type: cell-based, Candida albicans; settings: 1× and 2× MIC (H2O2 1 mM), 1-h treatment
Procedure: ROS production assay was performed as previously described with minor modifications. […] Once entering the cells, the DCFH-DA probe is first hydrolyzed to the non-fluorescent 2′,7′-dichlorodihydrofluorescein (DCFH) by cellular esterases. […] A colony of C. albicans ATCC 10231 (strain A) was used to inoculate 5 mL of PDB in a Falcon tube and grown overnight at 35° C. at 200 rpm.
Thus, whether the compounds of the invention would also induce ROS against C. albicans was studied. […] 2′,7′-dichlorodihydrofluorescin diacetate (DCFH-DA) was then used to detect and visualize ROS production (FIG. 5). As a positive control, cells were treated with H2O2, which is an inducer of hydroxyl radical formation.

[17] = Solubility in the RPMI 1640 medium used for MIC determination; settings: medium of MIC determination

With `C[C@@H]1[C@H](O)[C@@H](C)/C=C/C=C/C=C/C=C/C=C/C=C/C=C/[C@H](O[C@@H]2O[C@H](C)[C@@H](O)[C@H](N)[C@@H]2O)C[C@@H]2O[C@](O)(C[C@@H](O)C[C@@H](O)[C@H](O)CC[C@@H](O)C[C@@H](O)CC(=O)O[C@H]1C)C[C@H](O)[C@H]2C(=O)O` [AmB, amphotericin B, reference compound] the “MIC values, range over the panel of fungal strains” value [1] was 0.98 to 15.6 µg/mL, the “time from which completely fungicidal” value ([2]; 2× MIC) was 6 h and the MIC-0 [3] was 3.9 µg/mL (≈ 4.22 µM). It also gave an MIC-0 [4] of 15.6 µg/mL (≈ 16.9 µM), an MIC-0 [5] of 3.9 µg/mL (≈ 4.22 µM) and an MIC-0 [6] of 1.95 µg/mL (≈ 2.11 µM). The MIC-0 [7] was 3.9 µg/mL (≈ 4.22 µM), the MIC-0 [8] was 1.95 µg/mL (≈ 2.11 µM) and the MIC-0 [9] was 3.9 µg/mL (≈ 4.22 µM). For the same compound, the MIC-0 [10] was 3.9 µg/mL (≈ 4.22 µM), the MIC-0 [11] was 0.98 µg/mL (≈ 1.06 µM) and the MIC-0 [12] was 3.9 µg/mL (≈ 4.22 µM).
For `O=c1c2ccccc2[se]n1-c1ccccc1` [Compound 1, ebselen, reference compound], the MIC-0 [13] was 3.13 µg/mL (≈ 11.4 µM), the MIC-0 [14] was 12.5 µg/mL (≈ 45.6 µM) and the “fungicidal or fungistatic effect” value ([2]; 1× MIC) was “potent fungicidal activity”. For the same compound, the “time of complete fungal cell death” value ([2]; 1× MIC) was 6 h, the “time from which completely fungicidal” value ([2]; 2× MIC) was 3 h and the MIC-0 [3] was 1.56 µg/mL (≈ 5.69 µM). It also gave an MIC-0 [4] of 6.25 µg/mL (≈ 22.8 µM), an MIC-0 [15] of 1.56 µg/mL (≈ 5.69 µM) and an MIC-0 [5] of 1.56 µg/mL (≈ 5.69 µM). The MIC-0 [6] was 6.25 µg/mL (≈ 22.8 µM), the MIC-0 [7] was 12.5 µg/mL (≈ 45.6 µM) and the MIC-0 [8] was 1.56 µg/mL (≈ 5.69 µM). For the same compound, the MIC-0 [9] was 12.5 µg/mL (≈ 45.6 µM), the MIC-0 [10] was 12.5 µg/mL (≈ 45.6 µM) and the MIC-0 [11] was 1.56 µg/mL (≈ 5.69 µM). The MIC-0 [12] was over 12.5 µg/mL and the “ROS induction (DCFH-DA fluorescence)” value [16] was “highly fluorescent”.
In the case of `O=c1c2ccccc2sn1-c1ccccc1` [Compound 2a, ebsulfur], the MIC-0 [13] is reported as 6.25 µg/mL (≈ 27.5 µM), the MIC-0 [14] is reported as 12.5 µg/mL (≈ 55 µM) and the “fungicidal or fungistatic effect” value ([2]; 1× MIC) is reported as “fungistatic”. The “fungicidal or fungistatic effect” value ([2]; 2× MIC) was “fungicidal”, the MIC-0 [3] was 6.25 µg/mL (≈ 27.5 µM) and the MIC-0 [4] was 6.25 µg/mL (≈ 27.5 µM). For the same compound, the MIC-0 [15] was 6.25 µg/mL (≈ 27.5 µM), the MIC-0 [5] was 3.13 µg/mL (≈ 13.8 µM) and the MIC-0 [6] was 12.5 µg/mL (≈ 55 µM). The MIC-0 [7] was 12.5 µg/mL (≈ 55 µM), the MIC-0 [8] was 6.25 µg/mL (≈ 27.5 µM) and the MIC-0 [10] was over 12.5 µg/mL. The MIC-0 [11] was 3.13 µg/mL (≈ 13.8 µM), the MIC-0 [12] was over 12.5 µg/mL and the “ROS induction (DCFH-DA fluorescence)” value [16] was “highly fluorescent”.
For `O=c1c2ccccc2sn1-c1ccc2ccccc2n1` [Compound 2o], the “solubility in the RPMI 1640 medium” value [17] was “solubility issues”.
